Test results as given in patent US6214839A, “Substituted 6-alkylphenanthridines” (Byk Gulden Lomberg Chemische Fabrik GmbH, priority 1997, dated 2001).

System: PDE 4
Experiment: Inhibition of PDE 4 activity
Type: biochemical
Conditions: inhibitory concentration as -log IC50 (mol/l), method of Bauer and Schwabe adapted to microtiter plates

CCOc1cc2c(cc1OC)C([C@H]1CC[C@H](C(=O)OC)CC1)=N[C@H]1CCCC[C@@H]21 (relative stereo) [Compound 1]
-log IC50: 7.47
